Measurements published in ChEMBL document CHEMBL1909046, “DrugMatrix in vitro pharmacology data”.

Key:
[1] = target: T1, Alpha-1D adrenergic receptor (Homo sapiens, UniProt P25100); assay type: cell membranes, HEK293, Membrane; conditions: hek293; also: in other assays of this panel Not Active means under 50% inhibition at 10 µM
T1 sequence (P25100 whole entry): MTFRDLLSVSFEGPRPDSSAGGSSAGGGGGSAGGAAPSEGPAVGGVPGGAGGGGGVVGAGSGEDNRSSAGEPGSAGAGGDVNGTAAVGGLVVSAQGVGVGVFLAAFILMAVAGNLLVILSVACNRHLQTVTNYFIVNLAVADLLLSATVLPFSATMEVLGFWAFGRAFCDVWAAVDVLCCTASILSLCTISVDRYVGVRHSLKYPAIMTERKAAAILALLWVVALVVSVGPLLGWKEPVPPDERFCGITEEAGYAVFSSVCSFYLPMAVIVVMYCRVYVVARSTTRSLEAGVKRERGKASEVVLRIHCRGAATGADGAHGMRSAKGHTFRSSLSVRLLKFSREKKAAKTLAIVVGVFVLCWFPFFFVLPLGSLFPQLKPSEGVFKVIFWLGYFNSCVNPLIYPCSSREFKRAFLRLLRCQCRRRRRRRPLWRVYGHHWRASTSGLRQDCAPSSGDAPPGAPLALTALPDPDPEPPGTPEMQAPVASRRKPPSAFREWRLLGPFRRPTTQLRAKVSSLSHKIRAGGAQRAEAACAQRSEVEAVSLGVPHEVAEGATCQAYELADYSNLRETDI

Cannabinoid receptor 1 = Cannabinoid receptor 1 (Homo sapiens, UniProt P21554); assay type: cell membranes, Chem-1, Membrane; conditions: chem-1; also: in other assays of this panel Not Active means under 50% inhibition at 10 µM
Cathepsin G = target: T2, Cathepsin G (Homo sapiens, UniProt P08311); assay: biochemical; assay type: tissue-based, Neutrophil; conditions: neutrophil;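 also: inhibition of Cathepsin G enzyme activity, tested on an AMC-conjugated peptide substrate; in other assays of this panel Not Active means under 50% inhibition at 10 µM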
T2 sequence (P08311 whole entry): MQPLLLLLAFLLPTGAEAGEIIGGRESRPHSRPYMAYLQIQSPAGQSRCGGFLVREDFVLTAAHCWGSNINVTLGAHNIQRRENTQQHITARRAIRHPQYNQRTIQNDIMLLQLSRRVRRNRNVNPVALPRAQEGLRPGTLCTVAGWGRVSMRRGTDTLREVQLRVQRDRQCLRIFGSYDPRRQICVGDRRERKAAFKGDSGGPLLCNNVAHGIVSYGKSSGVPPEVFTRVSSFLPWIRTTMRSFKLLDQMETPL

[2] = target: Mitogen-activated protein kinase 3 (Homo sapiens, UniProt P27361); assay: DRUGMATRIX: Protein Serine/Threonine Kinase, ERK1 enzyme inhibition (substrate: Myelin Basic Protein); design: species or system Escherichia coli; conditions: Not Active = under 50% inhibition at 10 µM
[3] = target: Tyrosine-protein kinase Fyn (Homo sapiens, UniProt P06241); assay: biochemical; assay type: cell-based, Insect cells; conditions: insect cells;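 also: enzymatic inhibition of Fyn kinase activity measured with Poly(Glu:Tyr) as the phosphorylation substrate; in other assays of this panel Not Active means under 50% inhibition at 10 µM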
[4] = target: Voltage-gated inwardly rectifying potassium channel KCNH2 (Homo sapiens, UniProt Q12809); conditions: hek293; also: in other assays of this panel Not Active means under 50% inhibition at 10 µM
Cytochrome P450 1A2 = target: T3, Cytochrome P450 1A2 (Homo sapiens, UniProt P05177); conditions: bti-tn-5b1-4; also: in other assays of this panel Not Active means under 50% inhibition at 10 µM
T3 sequence (P05177 whole entry): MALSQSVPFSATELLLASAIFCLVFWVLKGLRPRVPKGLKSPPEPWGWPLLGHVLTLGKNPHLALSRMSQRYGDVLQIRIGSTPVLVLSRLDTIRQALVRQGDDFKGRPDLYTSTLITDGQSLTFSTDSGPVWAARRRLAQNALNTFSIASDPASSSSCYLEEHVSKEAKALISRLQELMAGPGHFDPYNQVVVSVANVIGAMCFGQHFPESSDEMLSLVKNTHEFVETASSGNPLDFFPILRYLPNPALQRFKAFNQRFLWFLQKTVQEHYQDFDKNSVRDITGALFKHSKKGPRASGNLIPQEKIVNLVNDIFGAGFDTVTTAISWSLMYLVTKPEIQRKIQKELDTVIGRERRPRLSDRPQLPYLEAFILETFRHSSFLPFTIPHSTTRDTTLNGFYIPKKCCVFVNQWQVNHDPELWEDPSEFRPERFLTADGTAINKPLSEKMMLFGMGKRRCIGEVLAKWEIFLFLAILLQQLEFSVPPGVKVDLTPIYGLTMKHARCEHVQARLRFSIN

Chain of Cannabinoid receptor 1 (P21554 whole entry): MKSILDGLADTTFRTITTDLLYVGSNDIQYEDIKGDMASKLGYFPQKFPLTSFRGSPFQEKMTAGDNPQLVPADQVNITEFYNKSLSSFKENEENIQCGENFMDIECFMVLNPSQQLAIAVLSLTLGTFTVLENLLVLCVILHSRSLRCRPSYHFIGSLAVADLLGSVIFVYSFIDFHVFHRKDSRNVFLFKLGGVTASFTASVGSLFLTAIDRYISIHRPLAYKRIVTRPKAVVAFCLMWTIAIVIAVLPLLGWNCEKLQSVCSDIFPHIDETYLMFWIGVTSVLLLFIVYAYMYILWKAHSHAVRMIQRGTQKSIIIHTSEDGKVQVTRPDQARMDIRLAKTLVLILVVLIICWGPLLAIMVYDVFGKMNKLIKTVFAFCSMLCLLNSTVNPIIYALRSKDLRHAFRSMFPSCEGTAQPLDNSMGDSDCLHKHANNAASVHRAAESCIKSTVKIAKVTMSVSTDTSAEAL
Chain of Mitogen-activated protein kinase 3 (P27361 whole entry): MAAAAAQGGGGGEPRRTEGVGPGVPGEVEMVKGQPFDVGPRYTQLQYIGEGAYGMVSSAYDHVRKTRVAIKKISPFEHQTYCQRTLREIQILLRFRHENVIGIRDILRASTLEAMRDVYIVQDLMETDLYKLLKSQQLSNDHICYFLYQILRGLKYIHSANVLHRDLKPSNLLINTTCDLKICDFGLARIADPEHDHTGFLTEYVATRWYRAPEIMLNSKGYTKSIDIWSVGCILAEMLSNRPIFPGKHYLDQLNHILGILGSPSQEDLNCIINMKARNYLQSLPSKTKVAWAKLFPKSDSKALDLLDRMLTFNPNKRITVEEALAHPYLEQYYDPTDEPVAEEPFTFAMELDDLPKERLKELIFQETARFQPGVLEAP
Chain of Voltage-gated inwardly rectifying potassium channel KCNH2 (Q12809 whole entry): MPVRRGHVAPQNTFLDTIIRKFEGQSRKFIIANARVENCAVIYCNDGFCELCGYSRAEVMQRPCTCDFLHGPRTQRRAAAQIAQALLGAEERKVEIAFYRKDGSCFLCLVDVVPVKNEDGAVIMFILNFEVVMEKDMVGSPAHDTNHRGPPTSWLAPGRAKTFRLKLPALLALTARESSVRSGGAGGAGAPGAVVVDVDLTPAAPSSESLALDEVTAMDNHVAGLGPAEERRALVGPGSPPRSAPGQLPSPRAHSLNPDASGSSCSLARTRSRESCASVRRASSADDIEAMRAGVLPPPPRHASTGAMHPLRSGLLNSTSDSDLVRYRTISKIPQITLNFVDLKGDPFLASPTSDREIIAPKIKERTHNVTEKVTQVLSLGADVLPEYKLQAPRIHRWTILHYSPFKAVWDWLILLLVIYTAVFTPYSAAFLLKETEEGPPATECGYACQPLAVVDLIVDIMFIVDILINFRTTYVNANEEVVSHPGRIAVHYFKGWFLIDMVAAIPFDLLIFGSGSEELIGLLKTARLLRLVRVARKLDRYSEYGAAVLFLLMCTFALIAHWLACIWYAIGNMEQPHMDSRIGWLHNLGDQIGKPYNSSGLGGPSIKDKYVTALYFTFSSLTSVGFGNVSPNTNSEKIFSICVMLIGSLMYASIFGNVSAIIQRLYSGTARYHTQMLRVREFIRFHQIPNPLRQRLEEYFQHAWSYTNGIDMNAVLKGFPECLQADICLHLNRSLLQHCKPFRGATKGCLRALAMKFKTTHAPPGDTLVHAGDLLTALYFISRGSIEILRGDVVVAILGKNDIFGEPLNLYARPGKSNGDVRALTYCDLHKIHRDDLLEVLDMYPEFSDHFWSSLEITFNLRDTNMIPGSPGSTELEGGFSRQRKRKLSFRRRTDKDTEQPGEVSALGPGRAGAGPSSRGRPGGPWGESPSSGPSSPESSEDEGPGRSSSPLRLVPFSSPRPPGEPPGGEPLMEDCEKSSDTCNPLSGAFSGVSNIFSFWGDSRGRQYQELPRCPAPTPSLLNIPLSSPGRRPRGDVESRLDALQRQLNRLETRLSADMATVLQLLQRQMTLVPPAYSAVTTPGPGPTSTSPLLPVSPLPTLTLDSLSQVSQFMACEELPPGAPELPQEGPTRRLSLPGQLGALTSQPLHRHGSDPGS
Chain of Tyrosine-protein kinase Fyn (P06241 whole entry): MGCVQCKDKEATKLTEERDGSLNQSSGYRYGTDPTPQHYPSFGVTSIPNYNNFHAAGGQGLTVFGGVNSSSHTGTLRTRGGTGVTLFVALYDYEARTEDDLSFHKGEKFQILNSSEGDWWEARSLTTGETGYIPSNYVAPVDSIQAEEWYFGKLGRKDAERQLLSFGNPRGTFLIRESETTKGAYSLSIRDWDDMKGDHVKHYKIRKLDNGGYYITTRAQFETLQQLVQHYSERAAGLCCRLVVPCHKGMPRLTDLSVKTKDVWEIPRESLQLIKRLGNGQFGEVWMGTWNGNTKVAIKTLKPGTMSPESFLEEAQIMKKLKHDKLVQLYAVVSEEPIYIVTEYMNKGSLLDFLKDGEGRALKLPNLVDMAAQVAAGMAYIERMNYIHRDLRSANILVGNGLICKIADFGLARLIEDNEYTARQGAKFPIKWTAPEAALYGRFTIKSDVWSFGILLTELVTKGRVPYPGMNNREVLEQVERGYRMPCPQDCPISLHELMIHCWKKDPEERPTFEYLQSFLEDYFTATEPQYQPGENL

c1ccc(Cn2ccnc2)cc1
Not Active: IC50 [1] | IC50 (Cannabinoid receptor 1) | IC50 (Cathepsin G) | IC50 [2] | IC50 [3] | IC50 [4] | Ki [4]

O=c1[nH]c2ccccc2c2ccccc12
Not Active: IC50 [1] | IC50 (Cannabinoid receptor 1) | IC50 (Cathepsin G) | IC50 [2] | IC50 [3] | IC50 [4] | Ki [4]

CC(=O)Nc1ccc2c(c1)Cc1ccccc1-2 [2-ACETYLAMINOFLUORENE]
Not Active: IC50 [1] | IC50 (Cannabinoid receptor 1) | IC50 (Cathepsin G) | IC50 [2] | IC50 [3] | IC50 [4] | Ki [4]

C[C@@H]1[C@H](O)[C@@H](C)/C=C/C=C/C=C/C=C/C=C/C=C/C=C/[C@H](O[C@@H]2O[C@H](C)[C@@H](O)[C@H](N)[C@@H]2O)C[C@@H]2O[C@](O)(C[C@@H](O)C[C@@H](O)[C@H](O)CC[C@@H](O)C[C@@H](O)CC(=O)O[C@H]1C)C[C@H](O)[C@H]2C(=O)O [AMPHOTERICIN B]
Not Active: IC50 [1] | IC50 (Cannabinoid receptor 1) | IC50 (Cathepsin G) | IC50 [3] | IC50 (Cytochrome P450 1A2) | Ki (Cytochrome P450 1A2) | IC50 [4] | Ki [4]

CC(C)NCC(O)COc1ccc(CC(N)=O)cc1 (stereo unspecified) [ATENOLOL]
Not Active: IC50 [1] | IC50 (Cannabinoid receptor 1) | IC50 (Cathepsin G) | IC50 [2] | IC50 [3]

CN(Cc1cc(Br)cc(Br)c1N)C1CCCCC1 [BROMHEXINE]
Not Active: IC50 [1] | IC50 (Cannabinoid receptor 1) | IC50 (Cathepsin G) | IC50 [3] | IC50 (Cytochrome P450 1A2) | Ki (Cytochrome P450 1A2) | IC50 [4] | Ki [4]

CC(N)Cc1c[nH]c2ccc(OCc3cccs3)cc12 (stereo unspecified) [BW-723C86]
Not Active: IC50 [1] | IC50 (Cannabinoid receptor 1) | IC50 (Cathepsin G) | IC50 [2] | IC50 [3] | IC50 [4] | Ki [4]

NS(=O)(=O)c1cc(C(=O)O)c(NCc2ccco2)cc1Cl [FUROSEMIDE]
Not Active: IC50 [1] | IC50 (Cannabinoid receptor 1) | IC50 (Cathepsin G) | IC50 [2] | IC50 [3]

O=C(O)CNCP(=O)(O)O [GLYPHOSATE]
Not Active: IC50 [1] | IC50 (Cannabinoid receptor 1) | IC50 (Cathepsin G) | IC50 [2] | IC50 [3] | IC50 [4] | Ki [4]

Cc1cc(C(C)(C)C)c(O)c(C)c1CC1=NCCN1 [OXYMETAZOLINE]
Not Active: IC50 (Cannabinoid receptor 1) | IC50 (Cathepsin G) | IC50 [2] | IC50 [3] | IC50 (Cytochrome P450 1A2) | Ki (Cytochrome P450 1A2) | IC50 [4] | Ki [4]

CHROMIC CHLORIDE
Not Active: IC50 [1] | Ki [1] | IC50 (Cannabinoid receptor 1) | Ki (Cannabinoid receptor 1) | IC50 (Cathepsin G) | Ki (Cathepsin G) | IC50 [2] | Ki [2] | IC50 (Cytochrome P450 1A2) | Ki (Cytochrome P450 1A2) | IC50 [4] | Ki [4]
